The record followed here is PubChem BioAssay (NCI).

Holding throughout (assay): DTP human tumour cell line panel, 48 h
The subject of experiment [1] is K-562 leukemia.
In experiment [2] the test system is CAKI-1 renal.
For experiment [3], the system named is DU-145 prostate.
The subject of experiment [4] is MCF7 breast.
The subject of experiment [5] is PC-3 prostate.
Experiment [6] relates to NCI-H226 lung.
The subject of experiment [7] is SF-539 CNS.
Experiment [8] deals with RPMI-8226 leukemia.
The test system of experiment [9] is SK-MEL-5 melanoma.

The term TGI denotes the concentration at which net growth stops.

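Five concentrations, 48 hours, 96-well plates. At the TGI there is no net growth.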

As to `O=[N+]([O-])C(C=C(n1nnc2ccccc21)n1nnc2ccccc21)=C(n1nnc2ccccc21)n1nnc2ccccc21`, the TGI in experiment [1], in experiment [2], in [3], in experiment [4], in experiment [5] and in [6] was greater than 100 µM each time. Further, the TGI in [7] and in experiment [8] was greater than 100 µM throughout.
Take `CCOC(=O)c1cc(Br)c(-c2cc(C)co2)[nH]1`: the TGI in [1], in experiment [2], in experiment [3], in [4], in experiment [5] and in experiment [9] was greater than 100 µM in each case. The TGI in experiment [6], in experiment [7] and in [8] was greater than 100 µM in each case.
Consider `CC(C)=NOC(=O)Nc1cccc2c1OCO2`, for which the TGI in experiment [2], in [3], in experiment [4], in experiment [5], in experiment [9] and in experiment [6] was greater than 100 µM throughout. In addition, the TGI in [7] and in [8] was greater than 100 µM each time.
For the compound `CC(C)c1ccc(/C=C2\CSCC3=C2N=C2SCC(=O)N2C3c2ccc(C(C)C)cc2)cc1` (stereo not drawn), the TGI in experiment [1], in experiment [2], in [3], in experiment [4], in experiment [5] and in experiment [9] was greater than 100 µM throughout. The TGI in experiment [6], in experiment [7] and in experiment [8] was greater than 100 µM throughout.
As for `Nc1cc2c3c(cccc3c1)C(=O)N(c1ccc(OCCN3CCCC3)cc1)C2=O`, the TGI in experiment [1] was 49.2 µM; in experiment [2], greater than 61.5 µM; in experiment [3] it was greater than 92.8 µM; in experiment [4] it was 31.5 µM; in experiment [5], 46.5 µM; in [9], 36.9 µM. In addition, the TGI is 33.2 µM in [6], 27.8 µM in [7] and 56.3 µM in experiment [8].
With `O=S(=O)(O)c1ccc2c(N=Nc3ccc(Sc4ccc(N=Nc5c(O)ccc6cc(S(=O)(=O)O)ccc56)cc4)cc3)c(O)ccc2c1`, the TGI in experiment [1], in experiment [2], in experiment [3], in experiment [4], in experiment [5] and in experiment [9] was greater than 100 µM in each case. Further, the TGI in [6], in experiment [7] and in [8] was greater than 100 µM in each case.
With `Cc1cc(=O)oc2c(CNC(CC(C)C)C(=O)O)c(O)ccc12` (stereo not drawn), the TGI in experiment [1], in [2], in experiment [3], in experiment [4], in experiment [5] and in experiment [9] was greater than 100 µM throughout. Further, the TGI in experiment [6], in experiment [7] and in experiment [8] was greater than 100 µM throughout.
Take `Cc1ccc(S[C@@H](C)[C@@](O)(C(N)=O)c2ccccc2)cc1`: the TGI in experiment [1] was 44.5 µM; in experiment [2], 30.7 µM; in experiment [3], greater than 100 µM; in [4], greater than 100 µM; in experiment [5] it was greater than 100 µM; in experiment [9], 81.1 µM. The TGI in experiment [6] is greater than 100 µM; in experiment [7], 60.3 µM; in [8], 74.8 µM.
On to `O=S(=O)(O)c1cc(S(=O)(=O)O)c2c(N=Nc3ccc(N=Nc4ccccc4)cc3)c(O)ccc2c1`, for which the total growth inhibition concentration (TGI) in [1], in experiment [2], in experiment [3], in experiment [4], in experiment [5] and in [9] was greater than 100 µM each time. Also, the TGI in experiment [6], in experiment [7] and in experiment [8] was greater than 100 µM throughout.
As to `CC(=O)c1sc2[n+](c1C)C(=O)/C(=C\c1ccccc1Cl)S2`, the TGI amounted to 80.6 µM in experiment [1]; 41 µM in experiment [2]; 33.6 µM in experiment [3]; 29.8 µM in experiment [4]; 49.9 µM in [5]; 23.4 µM in [9]. Further, the TGI came to 30.9 µM in experiment [6], 44.7 µM in [7] and 49.3 µM in experiment [8].
`O=c1cc(N2CCCC2)[nH]c(=O)n1-c1ccc(Cl)cc1`: the TGI in experiment [1], in experiment [2], in experiment [3], in experiment [4], in [5] and in experiment [6] was greater than 100 µM in each case. Also, the TGI in experiment [7] and in experiment [8] was greater than 100 µM in each case.
Consider `O=C1C(c2c(O)[nH]c3ccc(S(=O)(=O)NCCO)cc23)=Nc2ccccc21`, for which the TGI in [1] is 69.4 µM; in [2], greater than 100 µM; in experiment [3], 46.8 µM; in [4] it was 6.53 µM; in experiment [5] it was 54.3 µM; in experiment [9] it was greater than 100 µM. In addition, the TGI in experiment [6] and in experiment [8] was greater than 100 µM throughout.
On to `COC(=O)C(NC(=O)OC(C)(C)C)P(=O)(OC)OC` (stereo not drawn), for which the TGI in [1], in experiment [2], in experiment [3], in experiment [4], in experiment [5] and in experiment [9] was greater than 100 µM in each case. For the same compound, the TGI in [6] and in experiment [8] was greater than 100 µM throughout.
Consider `COc1ccc(-n2cnc3c(NC(Cc4ccccc4)C(=O)O)ncnc32)cc1` (stereo not drawn), for which the TGI in experiment [1], in experiment [2], in experiment [3], in experiment [4], in experiment [5] and in [9] was greater than 100 µM each time. Also, the total growth inhibition concentration (TGI) in experiment [6] and in [8] was greater than 100 µM each time.
Turning to `O=C(Nc1ccc2ccccc2c1)c1cc2cc(CCl)ccc2oc1=O`, the TGI in [1], in experiment [2], in experiment [3], in [4], in experiment [5] and in experiment [9] was greater than 100 µM in each case. Besides, the TGI in experiment [6] and in experiment [8] was greater than 100 µM throughout.
